Assay results as given in PMC12220852, “An adamantane‐based ligand as a novel chemical tool for thermosensory TRPM8 channel therapeutic modulation” (The Febs Journal, 2025).
Values belong to the compound of their own block, whether it stands above or below them.

Columns and labels:
hTRPM8 = biological target: T1, hTRPM8 (Homo sapiens, UniProt Q7Z2W7); assay: Whole-cell patch-clamp of WS-12-evoked currents in HEK293 cells expressing hTRPM8; format: cell-based
T1 construct: expressed in transfected cells; host or cells: HEK293 (transient, Lipofectamine 3000)
Description: We first used patch‐clamp to investigate the potency and blockade mechanism of compound 23 inhibiting WS‐12 evoked ionic currents in hTRPM8‐HEK293 cells. […] This blockade activity was reversible as virtually all WS‐12‐evoked ionic current could be recovered upon washout (Fig. 3A, bottom panel), thus preventing a use‐dependent side effect.
To unveil the underlying mechanism of channel blockade (competitive vs noncompetitive) we evaluated the effect of the α‐acyloxy carboxamide 23 on WS‐12 activating potency. For this purpose, we obtained the WS‐12 dose response in the absence and presence of 80 nM compound 23 (corresponding to its IC50 value).
For this purpose, we run 100 ms voltage ramps from −120 to 120 mV activated by WS‐12 in the absence and presence of 80 nM α‐acyloxy carboxamide 23.
(§1) Recording through patch‐clamp techniques was performed on HEK293 cells cultured in DMEM GlutaMax with 10% FBS and 1% P/S. The cell lines were authenticated following the standardization of STR Profiling guidelines (ANSI/ATCC ASN‐0002‐2022) using the CLA Identifier Plus PCR Amplification Kit (Thermo Fisher‐A44660) to analyze 16 highly variant human STRs. The cells were confirmed to be mycoplasma‐free. These cells were transiently transfected with plasmids encoding hTRPV1, hTRPM8, or hTRPA1 using Lipofectamine 3000. Transfected cells were seeded on 12 mm Ø glass coverslips treated with poly‐L‐lysine solution and recorded 2 days post‐transfection. The intracellular pipette solution included (in mM) 150 NaCl, 3 MgCl2, 5 EGTA, and 10 HEPES, pH 7.2 with CsOH, while the extracellular solution contained (in mM) 150 NaCl, 6 CsCl, 1 MgCl2, 1.5 CaCl2, 10 glucose, and 10 HEPES, pH 7.4 with NaOH. An EPC‐10 amplifier with Patchmaster software was used in whole‐cell experiments. Patch pipettes, created from thin‐wall borosilicate capillary glass tubing, were pulled with a Micropipette puller to a final resistance of 2–8 MΩ when filled with the internal solution. Recordings were acquired at 10 kHz and low‐pass filtered at 3 kHz, discarding recordings with leak currents > 200pA or series resistance > 20 MΩ. In voltage‐clamp recordings, cells were held at a constant potential, and the application of modulators was carried out using a gravity‐driven perfusion system. Total currents were normalized to the first current peak evoked by the activating stimuli. To study the effect of compound 23 on TRPM8 voltage dependence, a voltage step protocol from −120 to 120 mV was used with 100 ms steps of 20 mV from a holding potential at 0 mV. Leak currents were not subtracted, and conductance was calculated using the equation: G = I/(V − V r), where I is the measured ionic current, V is the applied voltage, and V r is the reversal potential that for the ionic conditions used was set to 0 mV.
Dose–response relationships for WS‐12 channel activation were normalized to the response of the channel to a saturating concentration of the agonist. Similarly, dose–response curves for blockade activity were normalized with respect to the response in the absence of the blocker. The experimental data were fitted to the Hill equation: Y=Bottom+Top‐Bottom/(1+10^ligand−LogIC50orLogEC50) using PRISM 9 software. Top was fixed to 100, as the unblocked response or the maximal response for WS‐12.

[1] = Metabolic stability and metabolite profile in mouse liver microsomes (MLM); format: in vitro ADME; conditions: phase I metabolites of compound 23 in MLM, LC-HRMS, estimated from total ion current
Method: Because of the lack of systemic activity of compound 23, we evaluated the in vitro plasmatic and hepatic metabolic stability. To this aim, compound 23 was exposed to mouse plasma and mouse liver microsome (MLM) fractions, and the residual substrate was measured after 1 h. Under these conditions, the residual substrate was about 97% and 90% in plasma and microsomes, respectively, denoting that this molecule suffers from mild hydrolysis of the ester group.
Metabolic biotransformation of compound 23 was investigated by tandem high‐resolution mass spectrometry using the software COMPOUND DISCOVERER 3.2™.
The standard incubation mixture (250 μL final volume) was carried out in a 50 mM Tris (tris[hydroxymethyl]aminomethane) buffer (pH 7.4) containing 150 mM KCl, […], 3.3 mM MgCl2, 1.3 mM NADPNa2, 3.3 mM glucose 6‐phosphate, 0.4 units·mL^−1 glucose 6‐phosphate dehydrogenase, acetonitrile as cosolvent (1% of total volume), and the substrate (50 μM). After pre‐equilibration of the mixture, an appropriate volume of MLM suspension was added to give a final protein concentration of 1.0 mg·mL^−1. The mixture was shaken for 60 min at 37 °C using a horizontal shaking thermostatic bath while protecting the samples from light. Control incubations were carried out without the presence of substrate, or NADPH regenerating system, or microsomes. Each incubation was stopped by the addition of 250 μL of ice‐cold acetonitrile, vortexed, and centrifuged at 13 000 r.p.m. for 5 min [68]. The supernatants were analyzed by LC‐UV and LC‐HRMS equipment (see Tables S1 and S2, Fig. S79 for full parameters setting in the Supporting Information).
The metabolic stability of the compound 23 was determined in vitro by measuring the residual peak area after incubation by LC‐UV analysis. Samples were further processed by LC‐HRMS equipment for metabolite profiling. Raw data files were processed using both XCALIBUR® and COMPOUND DISCOVERER 3.2® software (Thermo Scientific) using a customized workflow for the detection and identification of the expected and unknown metabolites (Fig. S80).

hTRPA1 = biological target: T2, hTRPA1 (Homo sapiens, UniProt O75762); assay: Whole-cell patch-clamp of AITC-evoked currents in HEK293 cells expressing hTRPA1; format: cell-based; conditions: 5 μM compound, 60 μM AITC, −60 mV
T2 construct: expressed in transfected cells; host or cells: HEK293 (transient, Lipofectamine 3000)
Method: To evaluate receptor selectivity, we investigated the activity of compound 23 on recombinant hTRPV1 and hTRPA1 channels recombinantly expressed in HEK293 cells (Fig. 4). We choose these thermosensory channels because of their structural similarity and expression in peripheral nociceptive terminals. In addition, some ligand cross‐interaction within these channels has been reported.
as §1, with “Total currents were normalized to the first current peak evoked by the activating stimuli. To study the effect of compound 23 on TRPM8 voltage dependence, a voltage step protocol from −120 to 120 mV was used with 100 ms steps of 20 mV from a holding potential at 0 mV.” left out, “mV. […]” for “mV.”

T1 sequence (Q7Z2W7 whole entry): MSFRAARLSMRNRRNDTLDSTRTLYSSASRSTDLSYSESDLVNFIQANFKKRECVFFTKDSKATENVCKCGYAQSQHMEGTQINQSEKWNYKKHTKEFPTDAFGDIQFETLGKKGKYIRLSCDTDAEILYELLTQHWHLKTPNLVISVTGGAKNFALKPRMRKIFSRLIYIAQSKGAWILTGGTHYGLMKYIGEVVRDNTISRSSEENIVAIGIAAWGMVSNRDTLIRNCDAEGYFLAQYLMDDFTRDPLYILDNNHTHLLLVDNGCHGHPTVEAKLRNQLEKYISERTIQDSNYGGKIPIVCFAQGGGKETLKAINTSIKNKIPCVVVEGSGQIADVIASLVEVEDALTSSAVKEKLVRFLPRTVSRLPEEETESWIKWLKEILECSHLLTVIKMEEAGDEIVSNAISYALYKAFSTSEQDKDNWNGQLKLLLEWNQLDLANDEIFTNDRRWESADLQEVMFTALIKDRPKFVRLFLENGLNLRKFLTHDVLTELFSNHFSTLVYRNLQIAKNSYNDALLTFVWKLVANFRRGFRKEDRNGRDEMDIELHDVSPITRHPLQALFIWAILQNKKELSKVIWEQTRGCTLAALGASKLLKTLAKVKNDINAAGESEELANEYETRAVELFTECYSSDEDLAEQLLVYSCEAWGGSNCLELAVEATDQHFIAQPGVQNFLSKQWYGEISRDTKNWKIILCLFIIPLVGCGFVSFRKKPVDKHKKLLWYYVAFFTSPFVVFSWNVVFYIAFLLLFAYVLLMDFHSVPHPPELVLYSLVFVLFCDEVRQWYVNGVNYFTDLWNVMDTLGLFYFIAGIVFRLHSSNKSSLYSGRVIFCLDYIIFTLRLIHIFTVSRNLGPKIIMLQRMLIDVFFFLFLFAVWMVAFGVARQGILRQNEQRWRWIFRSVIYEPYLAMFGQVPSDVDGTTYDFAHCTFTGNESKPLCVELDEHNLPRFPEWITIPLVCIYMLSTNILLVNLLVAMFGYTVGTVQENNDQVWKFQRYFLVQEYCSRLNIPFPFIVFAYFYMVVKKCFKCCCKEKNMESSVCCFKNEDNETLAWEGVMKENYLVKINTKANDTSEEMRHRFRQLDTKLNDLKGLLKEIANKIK
T2 sequence (O75762 whole entry): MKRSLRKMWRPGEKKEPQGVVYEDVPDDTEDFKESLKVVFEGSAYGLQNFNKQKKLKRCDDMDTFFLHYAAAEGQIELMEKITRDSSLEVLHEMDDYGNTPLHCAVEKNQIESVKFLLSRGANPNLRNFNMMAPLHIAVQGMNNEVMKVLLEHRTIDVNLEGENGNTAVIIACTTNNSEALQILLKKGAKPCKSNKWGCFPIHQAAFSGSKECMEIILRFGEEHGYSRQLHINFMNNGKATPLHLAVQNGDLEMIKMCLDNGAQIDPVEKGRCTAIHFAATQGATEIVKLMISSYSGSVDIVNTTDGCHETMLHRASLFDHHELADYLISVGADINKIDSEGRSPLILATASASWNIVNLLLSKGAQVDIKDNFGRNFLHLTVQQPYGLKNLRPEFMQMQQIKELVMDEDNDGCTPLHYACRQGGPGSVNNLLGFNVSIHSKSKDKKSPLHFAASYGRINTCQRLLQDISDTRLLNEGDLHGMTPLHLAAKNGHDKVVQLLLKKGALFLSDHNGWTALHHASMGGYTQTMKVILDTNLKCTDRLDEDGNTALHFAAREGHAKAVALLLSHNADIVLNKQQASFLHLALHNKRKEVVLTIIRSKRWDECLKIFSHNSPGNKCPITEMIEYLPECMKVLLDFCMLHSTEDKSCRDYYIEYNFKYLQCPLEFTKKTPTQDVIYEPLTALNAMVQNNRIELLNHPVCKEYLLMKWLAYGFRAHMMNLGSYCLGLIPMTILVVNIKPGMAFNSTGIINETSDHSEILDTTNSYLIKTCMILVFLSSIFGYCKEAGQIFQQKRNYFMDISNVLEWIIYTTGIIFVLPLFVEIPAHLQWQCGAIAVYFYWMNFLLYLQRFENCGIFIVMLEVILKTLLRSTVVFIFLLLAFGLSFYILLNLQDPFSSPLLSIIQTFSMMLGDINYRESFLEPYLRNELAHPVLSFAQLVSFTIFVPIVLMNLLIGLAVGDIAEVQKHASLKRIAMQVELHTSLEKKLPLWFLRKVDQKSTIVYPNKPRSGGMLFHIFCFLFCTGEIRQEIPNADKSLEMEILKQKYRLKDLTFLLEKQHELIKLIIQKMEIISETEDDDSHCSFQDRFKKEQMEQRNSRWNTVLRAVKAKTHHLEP

SMILES: Cc1cccc(COc2ccccc2C(=O)N(CCCN)Cc2cccs2)c1 [AMTB, N‐(3‐aminopropyl)‐2‐{[(3‐methylphenyl)methyl]oxy}(20)‐N‐(2‐thienylmethyl)benzamide, reference compound]
- voltage dependency of channel blockade (hTRPM8; voltage steps −120 to 120 mV, 0.08 μM compound 23, 10 μM AMTB): not voltage dependent

- Metabolite relative abundancy [1]: 18.7%
SMILES: O=C(CO)NC12CC3CC(CC(C3)C1)C2 [Compound M1a]

- WS‐12 Hill coefficient in the absence of compound 23 (hTRPM8; patch-clamp): 1.17
- WS‐12 Hill coefficient in the presence of compound 23 (hTRPM8; patch-clamp, 0.08 μM compound 23): 0.95
- EC50 (hTRPM8; patch-clamp, n = 18, read-out: WS‐12 EC50 in the absence of compound 23): 3 µM
SMILES: COc1ccc(NC(=O)[C@@H]2C[C@H](C)CC[C@H]2C(C)C)cc1 [WS‐12, (1R,2S,5R)‐N‐(4‐methoxyphenyl)‐5‐methyl‐2‐(propan‐2‐yl)cyclohexane‐1‐carboxamide, reference compound]

- block of hTRPA1‐evoked (AITC) current (hTRPA1): completely abrogated
SMILES: CC(C)c1ccc(NC(=O)Cn2cnc3c2c(=O)n(C)c(=O)n3C)cc1 [HC030031, 2‐(1,3‐Dimethyl‐2,6‐dioxo‐1,2,3,6‐tetrahydro‐7H‐purin‐7‐yl)‐N‐(4‐isopropylphenyl)acetamide, reference compound]
